From patent publication US7220740B2, “1,4-diazabicyclo[3.2.2]nonabenzoxazole, -benzothiazole and benzimidazole derivatives, preparation and therapeutic use thereof” (Sanofi-aventis, priority 2000, dated 2007)

Structure (SMILES): O=[N+]([O-])c1ccc2oc(N3CCN4CCC3CC4)nc2c1
- melting point: 158 to 160 °C
